# From ChEMBL document CHEMBL4765470 (J Med Chem, 2021)
# Starred links: 1 amine or outer side, 2 acyl side, 3 side chain; linkers in the order of their positions; H or OH if unused. Non-standard residues stand in square brackets, D forms with d. Residues, ends and D or L forms follow the SMILES beside them. *: point of attachment. Bpa = N[C@@H](Cc1ccc(C(=O)c2ccccc2)cc1)C(=O)O; β3hPhg = O=C(C[C@@H](N[*:1])c1ccccc1)[*:2]; Bip = N[C@@H](Cc1ccc(-c2ccccc2)cc1)C(=O)O; GABA(4S-Me) = C[C@@H](CCC(=O)[*:2])N[*:1]; X1 = O=C([C@]1(Cc2ccccc2)CCCN1[*:1])[*:2]; 1Nal = N[C@@H](Cc1cccc2ccccc12)C(=O)O; Tic = O=C(O)[C@@H]1Cc2ccccc2CN1; Nle = CCCC[C@H](N)C(=O)O; Bn = c1ccc(C*)cc1
# Biological target: T1, Apelin receptor (Homo sapiens, UniProt P35414)
# T1 sequence (P35414 whole entry): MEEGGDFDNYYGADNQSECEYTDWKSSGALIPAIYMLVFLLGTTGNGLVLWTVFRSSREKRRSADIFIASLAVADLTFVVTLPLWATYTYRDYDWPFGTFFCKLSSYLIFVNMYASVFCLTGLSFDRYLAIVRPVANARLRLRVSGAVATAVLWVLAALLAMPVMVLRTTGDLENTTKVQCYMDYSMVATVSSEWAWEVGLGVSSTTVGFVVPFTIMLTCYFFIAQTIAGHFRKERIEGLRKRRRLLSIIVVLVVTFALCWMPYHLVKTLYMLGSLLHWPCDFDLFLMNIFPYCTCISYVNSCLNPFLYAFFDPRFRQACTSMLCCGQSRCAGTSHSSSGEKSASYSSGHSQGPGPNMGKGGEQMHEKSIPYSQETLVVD
# Assay: Displacement of [125I] [NIe75, Tyr77]Pyr-apelin-13 from YFP-tagged human APJ receptor expressed in HEK293 cell membranes incubated for 1 hr by gamma counting based Cheng-Prusoff equation analysis
row,Compound,Ki
1,CCCC[C@H](N)C(=O)N1CCC[C@H]1C(=O)N[C@@H](CC(C)C)C(=O)N[C@@H](C)C(=O)N[C@@H](CO)C(=O)N[C@@H](CCCNC(=N)N)C(=O)N[C@H](C(=O)N1CCC[C@H]1C(=O)N[C@@H](Cc1ccccc1)C(=O)N1CCC[C@H]1C(=O)O)C(C)C (H-[Nle]PLASRVPFP-OH),1460 nM
2,CCCC[C@H](N)C(=O)N1CCC[C@H]1C(=O)N[C@@H](CC(C)C)C(=O)N[C@@H](Cc1ccccc1)C(=O)N[C@@H](CO)C(=O)N[C@@H](CCCNC(=N)N)C(=O)N[C@H](C(=O)N1CCC[C@H]1C(=O)N[C@@H](Cc1ccccc1)C(=O)N1CCC[C@H]1C(=O)O)C(C)C (H-[Nle]PLFSRVPFP-OH),> 10000 nM
3,CCCC[C@H](N)C(=O)N1CCC[C@H]1C(=O)N[C@@H](CC(C)C)C(=O)N[C@@H](Cc1cnc[nH]1)C(=O)N[C@@H](CO)C(=O)N[C@@H](CCCNC(=N)N)C(=O)N[C@@H](C)C(=O)N1CCC[C@H]1C(=O)N[C@@H](Cc1ccccc1)C(=O)N1CCC[C@H]1C(=O)O (H-[Nle]PLHSRAPFP-OH),419 nM
4,CCCC[C@H](N)C(=O)N1CCC[C@H]1C(=O)N[C@@H](CC(C)C)C(=O)N[C@@H](Cc1cnc[nH]1)C(=O)N[C@@H](CO)C(=O)N[C@@H](CCCNC(=N)N)C(=O)N[C@H](C(=O)N1CCC[C@H]1C(=O)N[C@@H](C)CCC(=O)O)C(C)C (H-[Nle]PLHSRVP-{GABA(4S-Me)}),> 10000 nM
5,CCCC[C@H](N)C(=O)N1CCC[C@H]1C(=O)N[C@@H](CC(C)C)C(=O)N[C@@H](Cc1cnc[nH]1)C(=O)N[C@@H](CO)C(=O)N[C@@H](CCCNC(=N)N)C(=O)N[C@H](C(=O)N1CCC[C@H]1C(=O)N[C@H](CC(=O)O)c1ccccc1)C(C)C (H-[Nle]PLHSRVP-β3hPhg),228 nM
6,CCCC[C@H](N)C(=O)N1CCC[C@H]1C(=O)N[C@@H](CC(C)C)C(=O)N[C@@H](Cc1cnc[nH]1)C(=O)N[C@@H](CO)C(=O)N[C@@H](CCCNC(=N)N)C(=O)N[C@H](C(=O)N1CCC[C@H]1C(=O)N[C@@H](C)C(=O)N1CCC[C@H]1C(=O)O)C(C)C (H-[Nle]PLHSRVPAP-OH),> 10000 nM
7,CCCC[C@H](N)C(=O)N1CCC[C@H]1C(=O)N[C@@H](CC(C)C)C(=O)N[C@@H](Cc1cnc[nH]1)C(=O)N[C@@H](CO)C(=O)N[C@@H](CCCNC(=N)N)C(=O)N[C@H](C(=O)N1CCC[C@H]1C(=O)N[C@@H](Cc1ccccc1)C(=O)N1CCC[C@@]1(Cc1ccccc1)C(=O)O)C(C)C (H-[Nle]PLHSRVPF[X1]-OH),916 nM
8,CCCC[C@H](N)C(=O)N1CCC[C@H]1C(=O)N[C@@H](CC(C)C)C(=O)N[C@@H](Cc1cnc[nH]1)C(=O)N[C@@H](CO)C(=O)N[C@@H](CCCNC(=N)N)C(=O)N[C@H](C(=O)N1CCC[C@H]1C(=O)N[C@@H](Cc1ccc(OCc2ccccc2)cc1)C(=O)N1CCC[C@H]1C(=O)O)C(C)C (H-[Nle]PLHSRVPY(Bn)P-OH),> 10000 nM
9,CCCC[C@H](N)C(=O)N1CCC[C@H]1C(=O)N[C@@H](CC(C)C)C(=O)N[C@@H](Cc1cnc[nH]1)C(=O)N[C@@H](CO)C(=O)N[C@@H](CCCNC(=N)N)C(=O)N[C@H](C(=O)N1CCC[C@H]1C(=O)N[C@@H](Cc1ccc(-c2ccccc2)cc1)C(=O)N1CCC[C@H]1C(=O)O)C(C)C (H-[Nle]PLHSRVP[Bip]P-OH),> 10000 nM

# Compounds with a lower Ki, results first:
row,Ki,Compound
1,38 nM,CCCC[C@H](N)C(=O)N1CCC[C@H]1C(=O)N[C@@H](CC(C)C)C(=O)N[C@@H](Cc1cnc[nH]1)C(=O)N[C@@H](CO)C(=O)N[C@@H](CCCNC(=N)N)C(=O)N[C@H](C(=O)N1CCC[C@H]1C(=O)N[C@@H](Cc1ccccc1)C(=O)N1C[C@H](OCc2ccccc2)C[C@H]1C(=O)O)C(C)C
2,69 nM,CCCC[C@H](N)C(=O)N1CCC[C@H]1C(=O)N[C@@H](CC(C)C)C(=O)N[C@@H](Cc1cnc[nH]1)C(=O)N[C@@H](CO)C(=O)N[C@@H](CCCNC(=N)N)C(=O)N[C@@H](CCC)C(=O)N1CCC[C@H]1C(=O)N[C@@H](Cc1ccccc1)C(=O)N1CCC[C@H]1C(=O)O
3,76 nM,CCCC[C@H](N)C(=O)N1CCC[C@H]1C(=O)N[C@@H](CC(C)C)C(=O)N[C@@H](Cc1cnc[nH]1)C(=O)N[C@@H](CO)C(=O)N[C@@H](CCCNC(=N)N)C(=O)N[C@H](C(=O)N1CCC[C@H]1C(=O)N[C@@H](Cc1ccccc1)C(=O)N1C[C@H](O)C[C@H]1C(=O)O)C(C)C
4,120 nM,CCCC[C@H](N)C(=O)N1CCC[C@H]1C(=O)N(C)[C@@H](CC(C)C)C(=O)N[C@@H](Cc1cnc[nH]1)C(=O)N[C@@H](CO)C(=O)N[C@@H](CCCNC(=N)N)C(=O)N[C@H](C(=O)N1CCC[C@H]1C(=O)N[C@@H](Cc1ccccc1)C(=O)N1CCC[C@H]1C(=O)O)C(C)C
5,212 nM,CCCC[C@H](N)C(=O)N1CCC[C@H]1C(=O)N[C@@H](Cc1ccccc1)C(=O)N[C@@H](Cc1cnc[nH]1)C(=O)N[C@@H](CO)C(=O)N[C@@H](CCCNC(=N)N)C(=O)N[C@H](C(=O)N1CCC[C@H]1C(=O)N[C@@H](Cc1ccccc1)C(=O)N1CCC[C@H]1C(=O)O)C(C)C (H-[Nle]PFHSRVPFP-OH)
6,45 nM,CCCC[C@H](N)C(=O)N1CCC[C@H]1C(=O)N[C@@H](CC(C)C)C(=O)N[C@@H](Cc1cnc[nH]1)C(=O)N[C@@H](CO)C(=O)N[C@@H](CCCNC(=N)N)C(=O)N[C@@H](CC(C)C)C(=O)N1CCC[C@H]1C(=O)N[C@@H](Cc1ccccc1)C(=O)N1CCC[C@H]1C(=O)O (H-[Nle]PLHSRLPFP-OH)
7,128 nM,CCCC[C@H](N)C(=O)N1CCC[C@H]1C(=O)N[C@@H](CC(C)C)C(=O)N[C@@H](Cc1cnc[nH]1)C(=O)N[C@@H](CO)C(=O)N[C@@H](CCCNC(=N)N)C(=O)N[C@H](C(=O)N1CCC[C@H]1C(=O)N[C@@H](Cc1ccccc1)C(=O)O)C(C)C (H-[Nle]PLHSRVPF-OH)
8,57 nM,CCCC[C@H](N)C(=O)N1CCC[C@H]1C(=O)N[C@@H](CC(C)C)C(=O)N[C@@H](Cc1cnc[nH]1)C(=O)N[C@@H](CO)C(=O)N[C@@H](CCCNC(=N)N)C(=O)N[C@H](C(=O)N1CCC[C@H]1C(=O)N[C@@H](Cc1ccccc1)C(=O)N[C@@H](C)C(=O)O)C(C)C (H-[Nle]PLHSRVPFA-OH)
9,29 nM,CCCC[C@H](N)C(=O)N1CCC[C@H]1C(=O)N[C@@H](CC(C)C)C(=O)N[C@@H](Cc1cnc[nH]1)C(=O)N[C@@H](CO)C(=O)N[C@@H](CCCNC(=N)N)C(=O)N[C@H](C(=O)N1CCC[C@H]1C(=O)N[C@@H](Cc1ccccc1)C(=O)N1Cc2ccccc2C[C@H]1C(=O)O)C(C)C (H-[Nle]PLHSRVPF[Tic]-OH)
10,92 nM,CCCC[C@H](N)C(=O)N1CCC[C@H]1C(=O)N[C@@H](CC(C)C)C(=O)N[C@@H](Cc1cnc[nH]1)C(=O)N[C@@H](CO)C(=O)N[C@@H](CCCNC(=N)N)C(=O)N[C@H](C(=O)N1CCC[C@H]1C(=O)N[C@@H](Cc1ccc(OCc2ccccc2)cc1)C(=O)O)C(C)C (H-[Nle]PLHSRVPY(Bn)-OH)
11,94 nM,CCCC[C@H](N)C(=O)N1CCC[C@H]1C(=O)N[C@@H](CC(C)C)C(=O)N[C@@H](Cc1cnc[nH]1)C(=O)N[C@@H](CO)C(=O)N[C@@H](CCCNC(=N)N)C(=O)N[C@H](C(=O)N1CCC[C@H]1C(=O)N[C@@H](Cc1cccc2ccccc12)C(=O)O)C(C)C (H-[Nle]PLHSRVP[1Nal]-OH)
12,48 nM,CCCC[C@H](N)C(=O)N1CCC[C@H]1C(=O)N[C@@H](CC(C)C)C(=O)N[C@@H](Cc1cnc[nH]1)C(=O)N[C@@H](CO)C(=O)N[C@@H](CCCNC(=N)N)C(=O)N[C@H](C(=O)N1CCC[C@H]1C(=O)N[C@@H](Cc1ccc(C(=O)c2ccccc2)cc1)C(=O)O)C(C)C (H-[Nle]PLHSRVP[Bpa]-OH)
